Holding throughout (assay type): physicochemical
One series in a line: Viscosity of the solvent. Conditions: neat solvent, 22 degrees C. Here is the method: 100 mg of a compound A represented by the following formula was put into a sample bottle, and a solvent was dropped thereinto while stirring until the compound A was completely dissolved. The solubility of the compound A in the solvent was calculated from an amount of the dropped solvent. The viscosity of the solvent was measured at the temperature of 22 degrees C.

Series [1] is described as follows: Solubility in 4-isopropylbiphenyl at 0.5 wt % by visual check. On the set-up: key to Solubility: A: solution that contained no insoluble element; B: solution that contained insoluble element(s). Conditions: for Solubility in 4-isopropylbiphenyl (in words): 0.5 wt %; for Solubility: added to 4-isopropylbiphenyl at 0.5 wt %, visual check. The text has this:
The results are shown in Table 2, where solution that contained no insoluble element is rated as “A” while solution that contained insoluble element(s) is rated as “B”.

A short description of series [2]: Solvent solubility of para-substituted naphthacene compound. Particulars: solvent not stated.

In the case of `CCc1cccc(-c2ccccc2)c1` [3-ethylbiphenyl], the Viscosity in the series “Viscosity of the solvent” was found to be 5.6 cP.
Same read-out and setting: in the case of `CC(C)c1ccc(-c2ccccc2)cc1` [4-isopropylbiphenyl] it was 6.9 cP.
Same read-out and setting: in the case of `CCCCCCCCCCCCc1ccccc1` [dodecylbenzene] it was 4.5 cP.
Consider `c1cc(-c2ccc3ccccc3c2)cc(-c2c3ccccc3c(-c3ccc4cc(-c5ccc6ccccc6c5)ccc4c3)c3ccccc23)c1` [Compound G], for which, in series [1], the “Solubility in 4-isopropylbiphenyl (in words)” value (from here on “Solubility … (in words)”) is listed as “low solubility” and the Solubility result is “B”.
`CC(C)(C)c1ccccc1` [t-butylbenzene] displayed a Viscosity in “Viscosity of the solvent” of 1.2 cP.
Take `c1ccc(-c2ccc(-c3c4ccccc4c(-c4ccc(-c5ccccc5)cc4-c4ccccc4)c4cc5ccccc5cc34)c(-c3ccccc3)c2)cc1` [drawing 5]: the Solubility in series [2] was not above 0.1 wt %.
Take `c1ccc(-c2ccc(-c3ccccc3)c(-c3ccc(-c4cc(-c5ccccc5)ccc4-c4ccccc4)c4cc5cc6ccccc6cc5cc34)c2)cc1` [Compound J]: the Solubility result in series [1] is “A”.
Consider `c1ccc(-c2c3ccccc3c(-c3cccc(-c4cccc(-c5c6ccccc6c(-c6ccccc6)c6ccccc56)c4)c3)c3ccccc23)cc1` [Compound I], for which, in series [1], the “Solubility … (in words)” value was “low solubility” and the Solubility entry is “B”.
Regarding xylene, the Viscosity in the series “Viscosity of the solvent” was found to be 0.76 cP.
Take `c1ccc(-c2ccc(-c3c4ccccc4c(-c4ccc(-c5ccccc5)cc4)c4cc5ccccc5cc34)cc2)cc1` [Compound M]: in series [1], the “Solubility … (in words)” value is recorded as “low solubility” and the Solubility result is recorded as “B”.
As to `c1cc(-c2ccc(-c3ccc4ccccc4c3)cc2)cc(-c2c3ccccc3c(-c3ccc(-c4cccc5ccccc45)cc3)c3ccccc23)c1` [Compound B], in series [1], the Solubility entry is listed as “A”.
On to `c1ccc(-c2ccc(-c3c4ccccc4c(-c4ccc(-c5ccccc5)cc4-c4ccccc4)c4cc5ccccc5cc34)c(-c3ccccc3)c2)cc1` [Compound L], for which, in series [1], the “Solubility … (in words)” value is listed as “low solubility” and the Solubility entry is recorded as “B”.
In the series “Viscosity of the solvent”, `Cc1ccccc1` [toluene] came in with a Viscosity of 0.65 cP.
Still for that read-out and setting: as for `Cc1ccc(Cc2ccc(C)c(C)c2)cc1C` [1,1-bis(3,4-dimethylphenyl)methane], the figure is 33.6 cP.
On the same count and under the same terms, as for `c1ccc2c(c1)CCCC2` [tetralin], the figure is 2.3 cP.
For `c1cc(-c2ccc3ccccc3c2)cc(-c2c3ccccc3c(-c3cccc4ccccc34)c3ccccc23)c1` [Compound F], in series [1], the “Solubility … (in words)” value is “low solubility” and the Solubility entry is listed as “B”.
On to `c1ccc2cc(-c3ccc4cc(-c5c6ccccc6c(-c6ccc(-c7cccc8ccccc78)cc6)c6ccccc56)ccc4c3)ccc2c1` [Compound D], for which the Solubility entry in series [1] was “A”.
As for `c1ccc(-c2cc(-c3ccccc3)c(-c3c4ccccc4c(-c4ccccc4)c4cc5ccccc5cc34)c(-c3ccccc3)c2)cc1` [Compound K], the Solubility result in series [1] is recorded as “A”.
Consider `c1ccc(-c2ccc(-c3c4ccccc4c(-c4ccccc4)c4ccccc34)cc2)cc1` [Compound H], for which, in series [1], the “Solubility … (in words)” value is “low solubility” and the Solubility result was “B”.
In the case of `c1ccc(-c2cc(-c3ccc4ccccc4c3)cc(-c3c4ccccc4c(-c4ccc5ccccc5c4)c4ccccc34)c2)cc1` [Compound E], the Solubility result in series [1] was “A”.
In turn, `c1ccc(C2CCCCC2)cc1` [cyclohexyl benzene] had a Viscosity in “Viscosity of the solvent” of 2.6 cP.
Regarding `c1ccc2cc(-c3ccc(-c4c5ccccc5c(-c5ccc(-c6cccc7ccccc67)cc5)c5ccccc45)cc3)ccc2c1` [Compound C], in series [1], the Solubility result is on record as “A”.
In the series “Viscosity of the solvent”, `CCC(C)c1ccccc1` (centres unmarked) [s-butylbenzene] came in with a Viscosity of 1.0 cP.
For `c1ccc(-c2c3ccccc3c(-c3ccccc3)c3c(-c4ccccc4)c4ccccc4c(-c4ccccc4)c23)cc1` [Compound N], in series [1], the “Solubility … (in words)” value was “lower solubility than the compounds J, K” and the Solubility result was “B”.
In “Viscosity of the solvent”, `Cc1cc(C)cc(C)c1` [mesitylene] gave a Viscosity of 0.76 cP.

(Values after patent US20080206447A1, “ORGANIC-ELECTROLUMINESCENCE-MATERIAL-CONTAINING SOLUTION, METHOD FOR FORMING ORGANIC ELECTROLUMINESCENCE THIN FILM AND ORGANIC ELECTROLUMINESCENCE DEVICE” (Idemitsu Kosan Co., Ltd., priority 2007, published 2008).)
